Source: US10792289B2 (Horizon Orphan LLC, priority 2009, dated 2020)

Assays:
[1] = system: P. aeruginosa; assay: Phase 2 study: P. aeruginosa density in sputum; format: in vivo, Pseudomonas aeruginosa; details: MITT; for Reduction in P. aeruginosa density in sputum: median Day 1 to Day 28
Experimental: (§1) The following dosage regimens (as nebulizer loaded doses) were evaluated: 120 mg QD (daily); 240 mg QD (daily); and 240 mg BID (twice daily).
(§2) Patients were assessed on Day 1, 7, 14, and 28, and then up to 28 days after completion of study drug, namely, Days 42 and 56. The end of the study was defined as the last visit of the last patient.
Efficacy was evaluated by microbiologic assessment of sputum samples, time to need for anti-pseudomonal antimicrobials, the Cystic Fibrosis Questionaire-Revised (CFQ-R), and pulmonary function tests. […] Pair-wise comparisons between all the treatment arms were conducted as secondary analyses.

[2] = system: stable CF patients; assay: Phase 2 study: safety, adverse events, discontinuation; format: in vivo, human
Experimental: as §1, §2
Adverse events and drug intolerability from Day 1 through the end of study were evaluated.

[3] = combined 240 mg QD and BID, Baseline to Day 7
[4] = combined 240 mg QD and BID, Baseline to Day 14
[5] = combined 240 mg QD and BID, Baseline to Day 28
[6] = combined 240 mg QD and BID, Day 1
[7] = combined 240 mg QD and BID, Day 7
[8] = combined 240 mg QD and BID, Day 14
[9] = combined 240 mg QD and BID, Day 28

SMILES: C[C@H]1COc2c(N3CCN(C)CC3)c(F)cc3c(=O)c(C(=O)O)cn1c23 [Levofloxacin, levofloxacin]
- Change in P. aeruginosa density, median ([1]; 120 mg QD, Baseline to Day 28): −0.20 log10 CTU/g sputum
- P. aeruginosa density, mean ([1]; 120 mg QD, Day 1): 7.43 log10 CTU/g sputum
- P. aeruginosa density, median ([1]; 120 mg QD, Day 1): 8.16 log10 CTU/g sputum
- P. aeruginosa density, mean ([1]; 120 mg QD, Day 7): 6.68 log10 CTU/g sputum
- P. aeruginosa density, median ([1]; 120 mg QD, Day 7): 6.98 log10 CTU/g sputum
- P. aeruginosa density, mean ([1]; 120 mg QD, Day 14): 7.33 log10 CTU/g sputum
- P. aeruginosa density, median ([1]; 120 mg QD, Day 14): 8.00 log10 CTU/g sputum
- P. aeruginosa density, mean ([1]; 120 mg QD, Day 28): 7.26 log10 CTU/g sputum
- P. aeruginosa density, median ([1]; 120 mg QD, Day 28): 7.78 log10 CTU/g sputum
- Reduction in P. aeruginosa density in sputum ([1]; 120 mg QD): approximately 58%
- Change in P. aeruginosa density, mean ([1]; 240 mg BID, Baseline to Day 7): −0.97 log10 CTU/g sputum
- Change in P. aeruginosa density, median ([1]; 240 mg BID, Baseline to Day 7): −0.76 log10 CTU/g sputum
- Change in P. aeruginosa density, mean ([1]; 240 mg BID, Baseline to Day 14): −0.81 log10 CTU/g sputum
- Change in P. aeruginosa density, median ([1]; 240 mg BID, Baseline to Day 14): −0.79 log10 CTU/g sputum
- Change in P. aeruginosa density, mean ([1]; 240 mg BID, Baseline to Day 28): −0.66 log10 CTU/g sputum
- Change in P. aeruginosa density, median ([1]; 240 mg BID, Baseline to Day 28): −0.56 log10 CTU/g sputum
- P. aeruginosa density, mean ([1]; 240 mg BID, Day 1): 7.17 log10 CTU/g sputum
- P. aeruginosa density, median ([1]; 240 mg BID, Day 1): 7.90 log10 CTU/g sputum
- P. aeruginosa density, mean ([1]; 240 mg BID, Day 7): 6.16 log10 CTU/g sputum
- P. aeruginosa density, median ([1]; 240 mg BID, Day 7): 6.53 log10 CTU/g sputum
- P. aeruginosa density, mean ([1]; 240 mg BID, Day 14): 6.32 log10 CTU/g sputum
- P. aeruginosa density, median ([1]; 240 mg BID, Day 14): 6.70 log10 CTU/g sputum
- P. aeruginosa density, mean ([1]; 240 mg BID, Day 28): 6.58 log10 CTU/g sputum
- P. aeruginosa density, median ([1]; 240 mg BID, Day 28): 6.48 log10 CTU/g sputum
- Reduction in P. aeruginosa density in sputum ([1]; 240 mg BID): approximately 96%
- Change in P. aeruginosa density, mean ([1]; 240 mg QD, Baseline to Day 7): −0.31 log10 CTU/g sputum
- Change in P. aeruginosa density, median ([1]; 240 mg QD, Baseline to Day 7): −0.18 log10 CTU/g sputum
- Change in P. aeruginosa density, mean ([1]; 240 mg QD, Baseline to Day 14): −0.44 log10 CTU/g sputum
- Change in P. aeruginosa density, median ([1]; 240 mg QD, Baseline to Day 14): −0.10 log10 CTU/g sputum
- Change in P. aeruginosa density, mean ([1]; 240 mg QD, Baseline to Day 28): −0.25 log10 CTU/g sputum
- Change in P. aeruginosa density, median ([1]; 240 mg QD, Baseline to Day 28): −0.39 log10 CTU/g sputum
- P. aeruginosa density, mean ([1]; 240 mg QD, Day 1): 7.08 log10 CTU/g sputum
- P. aeruginosa density, median ([1]; 240 mg QD, Day 1): 7.97 log10 CTU/g sputum
- P. aeruginosa density, mean ([1]; 240 mg QD, Day 7): 6.79 log10 CTU/g sputum
- P. aeruginosa density, median ([1]; 240 mg QD, Day 7): 6.95 log10 CTU/g sputum
- P. aeruginosa density, mean ([1]; 240 mg QD, Day 14): 6.63 log10 CTU/g sputum
- P. aeruginosa density, median ([1]; 240 mg QD, Day 14): 6.46 log10 CTU/g sputum
- P. aeruginosa density, mean ([1]; 240 mg QD, Day 28): 6.82 log10 CTU/g sputum
- P. aeruginosa density, median ([1]; 240 mg QD, Day 28): 7.38 log10 CTU/g sputum
- Reduction in P. aeruginosa density in sputum ([1]; 240 mg QD): approximately 74%
- Largest difference in P. aeruginosa density, placebo vs levofloxacin ([1]; Day 7): 1.44 log10 CFU/g sputum
- Largest difference in P. aeruginosa density, placebo vs levofloxacin ([1]; Day 14): 1.39 log10 CFU/g sputum
- Largest difference in P. aeruginosa density, placebo vs levofloxacin ([1]; Day 28): 1.78 log10 CFU/g sputum
- Change in P. aeruginosa density, mean [1, 3]: −0.65 log10 CTU/g sputum
- Change in P. aeruginosa density, median [1, 3]: −0.35 log10 CTU/g sputum
- Change in P. aeruginosa density, mean [1, 4]: −0.63 log10 CTU/g sputum
- Change in P. aeruginosa density, median [1, 4]: −0.40 log10 CTU/g sputum
- Change in P. aeruginosa density, mean [1, 5]: −0.46 log10 CTU/g sputum
- Change in P. aeruginosa density, median [1, 5]: −0.5 log10 CTU/g sputum
- P. aeruginosa density, mean [1, 6]: 7.12 log10 CTU/g sputum
- P. aeruginosa density, median [1, 6]: 7.91 log10 CTU/g sputum
- P. aeruginosa density, mean [1, 7]: 6.47 log10 CTU/g sputum
- P. aeruginosa density, median [1, 7]: 6.69 log10 CTU/g sputum
- P. aeruginosa density, mean [1, 8]: 6.48 log10 CTU/g sputum
- P. aeruginosa density, median [1, 8]: 6.61 log10 CTU/g sputum
- P. aeruginosa density, mean [1, 9]: 6.70 log10 CTU/g sputum
- P. aeruginosa density, median [1, 9]: 6.90 log10 CTU/g sputum
- Discontinuation from study, primary reason adverse event, patients (%) ([2]; 120 mg QD): 1 (2.6%)
- Study drug discontinuation, adverse event, patients (%) ([2]; 120 mg QD): 3 (7.9%)
- Study drug discontinuation, patients (%) ([2]; 120 mg QD): 3 (7.9%)
- Discontinuation from study, primary reason adverse event, patients (%) ([2]; 240 mg BID): 2 (5.1%)
- Study drug discontinuation, adverse event, patients (%) ([2]; 240 mg BID): 2 (5.1%)
- Study drug discontinuation, patients (%) ([2]; 240 mg BID): 2 (5.1%)
- Discontinuation from study, primary reason adverse event, patients (%) ([2]; 240 mg QD): 1 (2.7%)
- Study drug discontinuation, adverse event, patients (%) ([2]; 240 mg QD): 1 (2.7%)
- Study drug discontinuation, patients (%) ([2]; 240 mg QD): 1 (2.7%)
- Significant adverse events ([2]; Day 1 through the end of study): No significant adverse events were reported
